According to patent US7041785B1, “B1-bradykinin receptor antagonists and use thereof” (Université de Sherbrooke, priority 1996, dated 2006):
Non-standard residues stand in square brackets, D forms with d. Residues, ends and D or L forms follow the SMILES beside them. 2Nal = N[C@@H](Cc1ccc2ccccc2c1)C(=O)O; d2Nal = N[C@H](Cc1ccc2ccccc2c1)C(=O)O; Hyp = O=C(O)[C@@H]1C[C@@H](O)CN1; Tic = O=C(O)[C@@H]1Cc2ccccc2CN1; dTic = O=C(O)[C@H]1Cc2ccccc2CN1; Sar = CNCC(=O)O

What was measured:
Test in all cases: cell-based
[1] = biological target: T1, B2 receptor (Cavia porcellus, UniProt O70526); details: for G.P.I. pA2: vs BK, Inactive = no detectable antagonistic effect at ≦ 10 μg/ml, F.ag. full agonist, P.ag. partial agonist; for G.P.I. α^E: residual agonistic activity at 10 μg/mL in comparison with BK
T1 sequence (O70526 1-372): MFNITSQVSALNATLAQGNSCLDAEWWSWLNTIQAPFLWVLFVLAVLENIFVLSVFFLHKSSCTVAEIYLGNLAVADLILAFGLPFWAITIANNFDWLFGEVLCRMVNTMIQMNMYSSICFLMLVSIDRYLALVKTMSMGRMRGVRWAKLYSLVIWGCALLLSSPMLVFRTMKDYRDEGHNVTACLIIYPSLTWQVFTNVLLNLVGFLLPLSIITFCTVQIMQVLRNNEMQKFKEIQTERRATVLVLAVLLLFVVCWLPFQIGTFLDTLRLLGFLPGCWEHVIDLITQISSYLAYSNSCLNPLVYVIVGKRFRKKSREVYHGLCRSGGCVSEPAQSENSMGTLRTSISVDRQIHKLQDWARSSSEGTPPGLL
Outline: (§1)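 Isolated rabbit jugular vein (captopril 1 μmol/L), guinea pig ileum, endothelium-free rabbit aorta and human umbilical vein, in Krebs at 37 °C, with isometric tension recorded. Agonism was tested at 10 μg/mL.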

[2] = biological target: T2, B1 receptor (Oryctolagus cuniculus, UniProt P48748); details: for Kb: Rb.A. pA2, apparent affinity as antagonist vs desArg9BK; for Rb.A. α^E: residual agonistic activity at 10 μg/mL in comparison with desArg9BK
T2 sequence (P48748 1-352): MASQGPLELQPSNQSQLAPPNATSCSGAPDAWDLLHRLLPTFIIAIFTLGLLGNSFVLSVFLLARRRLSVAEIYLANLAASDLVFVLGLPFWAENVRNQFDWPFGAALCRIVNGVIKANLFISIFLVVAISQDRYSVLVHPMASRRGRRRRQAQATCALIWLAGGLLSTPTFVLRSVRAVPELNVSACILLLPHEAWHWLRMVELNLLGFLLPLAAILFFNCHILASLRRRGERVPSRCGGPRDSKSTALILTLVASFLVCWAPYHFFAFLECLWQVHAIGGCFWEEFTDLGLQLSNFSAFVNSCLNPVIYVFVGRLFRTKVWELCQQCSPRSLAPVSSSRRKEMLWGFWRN
Outline: as §1

[3] = biological target: T3, B2 receptor (Oryctolagus cuniculus, UniProt Q28642); details: for Rb.J.V. α^E: residual agonistic activity at 10 μg/mL in comparison with BK
T3 sequence (Q28642 1-367): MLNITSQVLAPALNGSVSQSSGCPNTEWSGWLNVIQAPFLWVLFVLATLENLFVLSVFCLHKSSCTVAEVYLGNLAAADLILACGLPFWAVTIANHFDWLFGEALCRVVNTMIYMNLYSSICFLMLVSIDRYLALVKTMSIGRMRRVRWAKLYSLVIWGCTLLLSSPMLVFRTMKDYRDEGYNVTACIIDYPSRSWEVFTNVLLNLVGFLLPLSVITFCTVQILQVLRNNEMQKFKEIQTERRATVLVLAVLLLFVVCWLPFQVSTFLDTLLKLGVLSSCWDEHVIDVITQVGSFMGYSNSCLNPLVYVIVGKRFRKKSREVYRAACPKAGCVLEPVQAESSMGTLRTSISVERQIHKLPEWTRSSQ
Outline: as §1

[4] = antagonist applied 10 min before, Inactive = no detectable antagonistic effect at ≦ 10 μg/ml

Row | SMILES | G.P.I. pA2 [1] | Kb [2, 4] [nM] | Kb [3] [nM] | Rb.A. pA2 ([2]; apparent affinity as antagonist vs desArg9BK, antagonist applied 10 min before, Inactive = no detectable antagonistic effect at ≦ 10 μg/ml) | Rb.J.V. α^E [3] | G.P.I. α^E [1] | Rb.A. α^E [2]
1 | CC(C)C[C@H](NC(=O)[C@H]1Cc2ccccc2CN1C(=O)[C@H](CO)NC(=O)[C@H](Cc1ccccc1)NC(=O)CNC(=O)[C@@H]1CCCN1C(=O)[C@@H]1CCCN1C(=O)[C@@H](N)CCCNC(=N)N)C(=O)O [Compound 8, (D-Tic^7, Leu^8)desArg^9BK] (H-RPPGFS[dTic]L-OH; N-terminus and C-terminus assumed) | Inactive | 1380 |  |  |  |  | 
2 | CNCC(=O)N[C@@H](CCCNC(=N)N)C(=O)N1CCC[C@H]1C(=O)N1CCC[C@H]1C(=O)NCC(=O)N[C@@H](Cc1ccccc1)C(=O)N[C@@H](CO)C(=O)N1Cc2ccccc2C[C@@H]1C(=O)N[C@@H](CC(C)C)C(=O)O [Compound 9, Sar(D-Tic^7, Leu^8)desArg^9BK] (H-[Sar]RPPGFS[dTic]L-OH; N-terminus and C-terminus assumed) | Inactive | 692 |  |  |  |  | 
3 | CC(C)C[C@H](NC(=O)[C@H]1Cc2ccccc2CN1C(=O)[C@H](CO)NC(=O)[C@H](Cc1ccccc1)NC(=O)CNC(=O)[C@@H]1CCCN1C(=O)[C@@H]1CCCN1C(=O)[C@H](CCCNC(=N)N)NC(=O)[C@H](N)CCCNC(=N)N)C(=O)O [Compound 12, D-Arg(D-Tic^7, Leu^8)desArg^9BK] (H-[dR]RPPGFS[dTic]L-OH; N-terminus and C-terminus assumed) | Inactive | 200 | 4470 |  |  |  | 
4 | CC[C@H](C)[C@H](NC(=O)[C@H]1Cc2ccccc2CN1C(=O)[C@H](CO)NC(=O)[C@H](Cc1ccccc1)NC(=O)CNC(=O)[C@@H]1CCCN1C(=O)[C@@H]1CCCN1C(=O)[C@H](CCCNC(=N)N)NC(=O)[C@H](N)CCCNC(=N)N)C(=O)O [Compound 13, D-Arg(D-Tic^7, Ile^8)desArg^9BK] (H-[dR]RPPGFS[dTic]I-OH; N-terminus and C-terminus assumed) | Inactive | 107 | 4570 | 6.97 |  |  | 
5 | CC[C@H](C)[C@H](NC(=O)[C@@H]1Cc2ccccc2CN1C(=O)[C@H](CO)NC(=O)[C@H](Cc1ccccc1)NC(=O)CNC(=O)[C@@H]1CCCN1C(=O)[C@@H]1CCCN1C(=O)[C@H](CCCNC(=N)N)NC(=O)[C@H](N)CCCNC(=N)N)C(=O)O [Compound 14, D-Arg(L-Tic^7, Ile^8)desArg^9BK] (H-[dR]RPPGFS[Tic]I-OH; N-terminus and C-terminus assumed) | Inactive | > 9120 | 6460 |  |  |  | 
6 | CC(C)C[C@H](NC(=O)[C@H]1Cc2ccccc2CN1C(=O)[C@H](CO)NC(=O)[C@H](Cc1ccccc1)NC(=O)CNC(=O)[C@@H]1C[C@@H](O)CN1C(=O)[C@@H]1CCCN1C(=O)[C@H](CCCNC(=N)N)NC(=O)[C@H](N)CCCNC(=N)N)C(=O)O [Compound 17, D-Arg(Hyp^3, D-Tic^7, Leu^8)desArg^9BK] (H-[dR]RP[Hyp]GFS[dTic]L-OH; N-terminus and C-terminus assumed) | Inactive | 229 | > 9120 |  |  |  | 
7 | CC(=O)N[C@@H](CCCCN)C(=O)N[C@@H](CCCNC(=N)N)C(=O)N1CCC[C@H]1C(=O)N1CCC[C@H]1C(=O)NCC(=O)N[C@@H](Cc1ccccc1)C(=O)N[C@@H](CO)C(=O)N[C@H](Cc1ccc2ccccc2c1)C(=O)N[C@@H](CC(C)C)C(=O)O [Compound 18, AcLys(D-βNal^7, Leu^8)desArg^9BK] (Ac-KRPPGFS[d2Nal]L-OH; C-terminus assumed) | Inactive | 12.3 | > 8710 |  | 0 | 0 | 0
8 | CC[C@H](C)[C@H](NC(=O)[C@@H](Cc1ccc2ccccc2c1)NC(=O)[C@H](CO)NC(=O)[C@H](Cc1ccccc1)NC(=O)CNC(=O)[C@@H]1CCCN1C(=O)[C@@H]1CCCN1C(=O)[C@H](CCCN=C(N)N)NC(=O)[C@H](CCCCN)NC(C)=O)C(=O)O [Compound 19, AcLys(D-βNal^7, Ile^8)desArg^9BK] (Ac-KRPPGFS[d2Nal]I-OH) |  | 3.98 |  |  |  |  | 
9 | CC[C@H](C)[C@H](NC(=O)[C@H](Cc1ccc2ccccc2c1)NC(=O)[C@H](CO)NC(=O)[C@H](Cc1ccccc1)NC(=O)CNC(=O)[C@@H]1CCCN1C(=O)[C@@H]1CCCN1C(=O)[C@H](CCCNC(=N)N)NC(=O)[C@H](CCCCN)NC(C)=O)C(=O)O [Compound 20, AcLys(L-βNal^7, Ile^8)desArg^9BK] (Ac-KRPPGFS[2Nal]I-OH; C-terminus assumed) | Inactive | 5010 | 7760 |  | 0 | 0.06 | 0
10 | CC[C@H](C)[C@H](NC(=O)[C@@H](Cc1ccc2ccccc2c1)NC(=O)[C@H](CO)NC(=O)[C@H](Cc1ccccc1)NC(=O)CNC(=O)[C@@H]1CCCN1C(=O)[C@@H]1CCCN1C(=O)[C@H](CCCNC(=N)N)NC(=O)[C@H](N)CCCNC(=N)N)C(=O)O [Compound 23, D-Arg(D-βNal^7, Ile^8)desArg^9BK] (H-[dR]RPPGFS[d2Nal]I-OH; N-terminus and C-terminus assumed) |  | 19.1 | 427 |  |  |  | 
11 | CC(C)C[C@H](NC(=O)[C@@H](Cc1ccc2ccccc2c1)NC(=O)[C@H](CO)NC(=O)[C@H](Cc1ccccc1)NC(=O)CNC(=O)[C@@H]1CCCN1C(=O)[C@@H]1CCCN1C(=O)[C@H](CCCNC(=N)N)NC(=O)[C@H](N)CCCNC(=N)N)C(=O)O [Compound 24, D-Arg(D-βNal^7, Leu^8)desArg^9BK] (H-[dR]RPPGFS[d2Nal]L-OH; N-terminus and C-terminus assumed) | Inactive | 50.1 | 3630 |  |  |  | 
12 | CC[C@H](C)[C@H](NC(=O)[C@@H](Cc1ccc2ccccc2c1)NC(=O)[C@H](CO)NC(=O)[C@H](Cc1ccccc1)NC(=O)CNC(=O)[C@@H]1CCCN1C(=O)[C@@H]1CCCN1C(=O)[C@H](CCCNC(=N)N)NC(=O)[C@H](N)CCCCN)C(=O)O [Compound 25, D-Lys(D-βNal^7, Ile^8)desArg^9BK] (H-[dK]RPPGFS[d2Nal]I-OH; N-terminus and C-terminus assumed) |  | 19.5 | 3720 |  |  |  | 
13 | CC[C@H](C)[C@H](NC(=O)[C@@H](Cc1ccc2ccccc2c1)NC(=O)[C@H](CO)NC(=O)[C@H](Cc1ccccc1)NC(=O)CNC(=O)[C@@H]1CCCN1C(=O)[C@@H]1CCCN1C(=O)[C@H](CCCNC(=N)N)NC(=O)CNC)C(=O)O [Compound 26, Sar(D-βNal^7, Ile^8)desArg^9BK] (H-[Sar]RPPGFS[d2Nal]I-OH; N-terminus and C-terminus assumed) |  | 38 | 9120 |  |  |  | 
14 | CC(=O)N[C@@H](Cc1ccc(O)cc1)C(=O)NCCCCCC(=O)N[C@@H](CCCCN)C(=O)N[C@@H](CCCNC(=N)N)C(=O)N1CCC[C@H]1C(=O)N1CCC[C@H]1C(=O)NCC(=O)N[C@@H](Cc1ccccc1)C(=O)N[C@@H](CO)C(=O)N1CCC[C@H]1C(=O)N[C@@H](CC(C)C)C(=O)O [Compound 27, AcTyrεAhxLys(Leu^8)desArg^9BK] | P.ag. | 7.94 |  |  | 0.03 | 0.30 | 0
15 | CNCC(=O)N[C@@H](Cc1ccc(O)cc1)C(=O)NCCCCCC(=O)N[C@@H](CCCCN)C(=O)N[C@@H](CCCNC(=N)N)C(=O)N1CCC[C@H]1C(=O)N1CCC[C@H]1C(=O)NCC(=O)N[C@@H](Cc1ccccc1)C(=O)N[C@@H](CO)C(=O)N1CCC[C@H]1C(=O)N[C@@H](CC(C)C)C(=O)O [Compound 28, SarTyrεAhxLys(Leu^8)desArg^9BK] | Inactive | 6.76 |  |  |  |  | 
